This is an account of results in PubChem BioAssay (NCI).

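Interpolation was linear, between the two tested concentrations surrounding the appropriate level; five concentrations were tested over 48 hours in 96-well plates. GI50: concentration for 50% inhibition of growth. At the TGI there is no net growth.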

Test systems include CAKI-1 renal; COLO 205 colon; K-562 leukemia; MALME-3M melanoma; NCI/ADR-RES ovarian; OVCAR-4 ovarian; SK-MEL-28 melanoma; SR leukemia; PC-3 prostate; SK-OV-3 ovarian.
What all share (test): growth of human tumour cells (NCI), 48 h

As to `CO[C@H]1SC[C@H](OC(C)=O)[C@H](OC(C)=O)[C@H]1OC(C)=O`, the TGI with CAKI-1 renal, with COLO 205 colon, in the test on K-562 leukemia, in the test with MALME-3M melanoma, in the test on NCI/ADR-RES ovarian and in the test on OVCAR-4 ovarian was over 100 µM each time. For the same compound, the TGI with SK-MEL-28 melanoma and with SR leukemia was over 100 µM throughout.
Turning to `C=C1N(C=O)C(C)(C)N(O)C1(C)C`, the TGI in the test on CAKI-1 renal, in the test with COLO 205 colon, in the test with MALME-3M melanoma, in the test with NCI/ADR-RES ovarian, in the test with OVCAR-4 ovarian and in the test with PC-3 prostate was over 100 µM in each case. Moreover, the TGI in the test with SK-MEL-28 melanoma and in the test with SK-OV-3 ovarian was over 100 µM in each case.
Turning to `O=P(O)(O)c1ccccc1Oc1ccccc1`, the TGI in the test on CAKI-1 renal, with COLO 205 colon, in the test on K-562 leukemia, in the test on NCI/ADR-RES ovarian, in the test with PC-3 prostate and with SK-MEL-28 melanoma was over 100 µM throughout. In the test on SK-OV-3 ovarian, this compound showed a TGI of over 100 µM.
For the compound `O=C(O)c1cccc2cccc(-c3cccc4cccc(C(=O)O)c34)c12`, the TGI in the test with CAKI-1 renal, with COLO 205 colon, with K-562 leukemia, in the test on MALME-3M melanoma, with NCI/ADR-RES ovarian and with OVCAR-4 ovarian was over 100 µM throughout. For the same compound, the TGI with PC-3 prostate, with SK-MEL-28 melanoma and in the test on SK-OV-3 ovarian was over 100 µM throughout.
Regarding `CS(=O)(=O)CSCSSCS(C)(=O)=O`, the TGI in the test with CAKI-1 renal is over 57.2 µM; in the test with COLO 205 colon, 38 µM; in the test with K-562 leukemia it was over 95.5 µM; in the test with MALME-3M melanoma, over 100 µM; with OVCAR-4 ovarian, over 100 µM; with SK-MEL-28 melanoma, 66.4 µM. For the same compound, the TGI with SK-OV-3 ovarian was over 100 µM; in the test on SR leukemia, over 91.8 µM.
Take `O=C(N/N=C(/CCN1CCCC1)CC(c1ccccc1)c1c(O)c2ccccc2oc1=O)c1ccncc1` (stereo not given): the TGI in the test with CAKI-1 renal was over 100 µM; in the test with K-562 leukemia, over 100 µM; in the test on MALME-3M melanoma it was over 100 µM; in the test on OVCAR-4 ovarian it was over 100 µM; with SK-OV-3 ovarian, over 100 µM; with SR leukemia it was 48.6 µM.
As for `CCC1=C(C(C)=O)[C@@H]2CCCCC[C@@H](C(=O)OC)C2C1=O` (stereo not given in full), the TGI with CAKI-1 renal, in the test with COLO 205 colon, with K-562 leukemia, in the test on MALME-3M melanoma, in the test on OVCAR-4 ovarian and in the test with SK-MEL-28 melanoma was over 100 µM throughout. In addition, the TGI with SK-OV-3 ovarian and in the test on SR leukemia was over 100 µM throughout.
`COC(=O)C1CCc2sc3ncnc(Nc4cn[nH]c4C(=O)Nc4ccc(CN5CCN(C)CC5)cc4)c3c21` (stereo not given): the GI50 is 254 nM in the test with K-562 leukemia; 1980 nM in the test with MALME-3M melanoma; 3.27 µM in the test with NCI/ADR-RES ovarian; 906 nM in the test with OVCAR-4 ovarian; 132 nM with SK-OV-3 ovarian; 285 nM in the test with SR leukemia. Further, the TGI in the test with K-562 leukemia was 4.15 µM; in the test on MALME-3M melanoma, 3.78 µM; with NCI/ADR-RES ovarian it was over 100 µM; in the test on OVCAR-4 ovarian, over 100 µM; in the test on SK-OV-3 ovarian, over 100 µM; in the test on SR leukemia, 0.815 µM.
Regarding `COc1cc2cc(C(=O)N3C[C@H](CCl)c4c3cc(N)c3ccccc43)[nH]c2c(OC)c1OC`, the TGI was under 0.005 µM in the test with CAKI-1 renal; under 0.005 µM in the test with COLO 205 colon; over 50 µM in the test with K-562 leukemia; 0.0103 µM in the test with MALME-3M melanoma; 7.69 µM in the test on NCI/ADR-RES ovarian; 0.819 µM in the test on SK-OV-3 ovarian. For the same compound, the TGI with SR leukemia is over 50 µM. Also, the GI50 was under 5 nM with COLO 205 colon, 5 nM in the test with K-562 leukemia, 39.8 nM in the test with SK-OV-3 ovarian and 5 nM with SR leukemia.
As to `CCCCOc1ccc(OCCCCCCCCCC[N+](C)(C)C)cc1`, the TGI is 16.6 µM with CAKI-1 renal; 2.68 µM in the test on COLO 205 colon; 15.4 µM with K-562 leukemia; 16 µM with MALME-3M melanoma; over 100 µM in the test with NCI/ADR-RES ovarian; 14.8 µM in the test with OVCAR-4 ovarian. Besides, the TGI in the test on SK-MEL-28 melanoma came out at 18 µM; in the test with SK-OV-3 ovarian, 10.8 µM.
For the compound `O=S(=O)(O)c1ccc(N=Nc2ccc(N=Nc3ccc(/C=C/c4ccc(N=[N+]([O-])c5ccc(/C=C/c6ccc(N=Nc7ccc(N=Nc8ccc(S(=O)(=O)O)cc8)cc7)cc6S(=O)(=O)O)c(S(=O)(=O)O)c5)cc4S(=O)(=O)O)c(S(=O)(=O)O)c3)cc2)cc1`, the TGI with COLO 205 colon, in the test with K-562 leukemia, in the test with MALME-3M melanoma, with NCI/ADR-RES ovarian, in the test with OVCAR-4 ovarian and in the test on SK-MEL-28 melanoma was over 100 µM each time. The TGI in the test on SK-OV-3 ovarian was over 100 µM.
With `Cc1cc(C)nc(NS(=O)(=O)c2ccc(Nc3c4ccccc4nc4c(C(=O)N5CCN(CCOS(C)(=O)=O)CC5)cccc34)cc2)n1`, the TGI in the test on CAKI-1 renal, with COLO 205 colon, with K-562 leukemia, with MALME-3M melanoma, with OVCAR-4 ovarian and in the test with SK-MEL-28 melanoma was over 100 µM throughout. Also, the TGI in the test with SK-OV-3 ovarian was over 100 µM.
As for `COC(=O)[C@@H]1CCCCC[C@H]2C(CO)=C(C)C(=O)C12` (stereo not given in full), the TGI in the test on CAKI-1 renal, in the test with COLO 205 colon, in the test with K-562 leukemia, in the test with MALME-3M melanoma, with OVCAR-4 ovarian and in the test on SK-MEL-28 melanoma was over 100 µM throughout. Besides, the TGI in the test on SK-OV-3 ovarian and with SR leukemia was over 100 µM in each case.
`C=C1OC(c2ccccc2NC)=NC12CCCCC2`: the TGI in the test with CAKI-1 renal, in the test with COLO 205 colon, with K-562 leukemia, in the test with MALME-3M melanoma, in the test with NCI/ADR-RES ovarian and with OVCAR-4 ovarian was over 100 µM each time. The TGI in the test on PC-3 prostate, in the test with SK-MEL-28 melanoma and with SK-OV-3 ovarian was over 100 µM each time.
Take `O=c1c(Cc2ccc(Cl)cc2)nnc2sc(-c3ccc(-c4ccc(F)c(Cl)c4)o3)nn12`: the TGI in the test on CAKI-1 renal, with COLO 205 colon, in the test with K-562 leukemia, with MALME-3M melanoma, in the test with NCI/ADR-RES ovarian and with OVCAR-4 ovarian was over 100 µM in each case. The TGI in the test on PC-3 prostate, in the test on SK-MEL-28 melanoma and in the test on SK-OV-3 ovarian was over 100 µM each time.
